Reference: patent publication US20160101093A1, “METHODS FOR THE TREATMENT OF PREMATURE EJACULATION” (priority 2013, published 2016)

Legend:
[1] = system: patient with premature ejaculation; test: Randomized blinded study of clinician-administered bupivacaine injection, IELT and PEP recorded (Example 4); type: in vivo, human; settings: 0.25% bupivacaine
Protocol: A patient with premature ejaculation is 18 years or old and in a monogamous heterosexual relationship for 6 months. A screening/baseline run-in phase will request at least 4 measurements of IELT over a 4-6 week period. For each sexual episode, partner will record PEP, IELT, date and time of sexual encounter; patient will fill out PEP. To qualify for the treatment phase, patients must have a measured IELT of 2 minutes or less in 75% of valuable events. A volume of distribution of 0.4 and 0.8 mL will bathe the dorsal penile nerves as they are located just to the right and left of midline. Diffusion should occur across the midline given that the subcutaneous compartment has a low resistance to fluid migration. Diffusion of the drug solution should occur through Buck's fascia to the dorsal penile nerves. A concentration of bupivacaine (0.25%) is used for local nerve blocks. Doses of administration are of 1 mg of bupivacaine for the 0.4 mL volume and 2 mg for the 0.8 mL group. This is less than 1.5% of the maximum permitted dose. […] Patients will be randomized to one of 4 treatment groups. […] Subsequently, patient will be evaluated for eligibility for “treatment phase”—must have either: (1) IELT of 2 minutes or less in at least 75% or sexual episodes; or (2) IELT of 3 minutes or less in at least 75% of sexual episodes with PEP score indicating accompanying psychosocial or relationship distress. […]

[2] = system: patient with lifelong premature ejaculation; test: Patient self-injection of bupivacaine at home, subcutaneous, dorsal penis (contemplated Examples 1 and 2); type: in vivo, human; settings: dorsally within 1 cm proximal to the glans, self-injected
Protocol: “Prolongation of climax time” means an increase in time (increase in climax baseline time) from which a patient becomes sexually aroused to the time of sexual climax (i.e. orgasm). This is commonly measured as the ‘intravaginal latency time’ and is measured by stopwatch held and activated by the female partner commencing with insertion of male organ into the female, ending at climax of the male. In one aspect, “treating premature ejaculation” means increasing the time between the beginning of sexual arousal of a patient and ejaculation by the patient; and in particular instances, it can mean increasing the time from which sexual intercourse begins to the time of ejaculation. It is contemplated by the present invention, that a patient with lifelong premature ejaculation and relationship stress proceeds to contact their physician. The physician prescribes a teaching injection of 0.2 mL bupivacaine. The administration of bupivacaine is made dorsally just before the glans, e.g., within 1 cm proximal to the glans. The injection is made subcutaneously to the left or right of midline. The injection anesthetizes the dorsal penile nerve. A 30-32 gauge needle is used, and the need is 10 mm or less (e.g., between 4-10 mm, e.g., 4 mm). […] In one aspect the patient sees an improvement in prolonging climax from 45 seconds (prior to treatment) to 4 minutes (following treatment). It is contemplated by the present invention, that a patient with lifelong premature ejaculation and relationship stress proceeds to contact their physician. The physician prescribes a teaching injection of 0.4 mL bupivacaine. The administration of bupivacaine is made dorsally just before the glans, e.g., within 1 cm proximal to the glans. The injection is made subcutaneously to the left or right of midline. The injection anesthetizes the dorsal penile nerve. A 30-32 gauge needle is used, and the need is 7 mm or less (between 4-7 mm). […] In one aspect the patient sees an improvement in prolonging climax from 45 seconds (prior to treatment) to 4 minutes (following treatment).

CCCCN1CCCCC1C(=O)Nc1c(C)cccc1C (centres unmarked) [bupivacaine]
adverse dose-related effects ([1]; 1 mg (0.4 mL) or 2 mg (0.8 mL)): not anticipated | climax time following treatment (45 seconds prior to treatment) ([1]; treatment groups, 1 mg in 0.4 mL or 2 mg in 0.8 mL, clinician-injected): 4 min | climax time following treatment (45 seconds prior to treatment) ([2]; 0.2 mL bupivacaine): 4 min | intravaginal latency time increase ([2]; 0.2 mL bupivacaine): increases more than two-fold | side-effect profile compared to previous therapies ([2]; 0.2 mL bupivacaine): better side-effect profile compared to previous therapies | climax time following treatment (45 seconds prior to treatment) ([2]; 0.4 mL bupivacaine): 4 min | intravaginal latency time increase ([2]; 0.4 mL bupivacaine): increases more than two-fold | side-effect profile compared to previous therapies ([2]; 0.4 mL bupivacaine): better side-effect profile compared to previous therapies
